In publication PMC12147183, “Lacritin cleavage-potentiated targeting of iron - respiratory reciprocity promotes bacterial death” (The Journal of Biological Chemistry, 2025):
Values after ≈ are worked out from the molar mass of the structure shown. Peptide text beside a SMILES is read from it.

Legend:
OprF = target: T1, OprF (Pseudomonas aeruginosa, UniProt P13794); assay: Affinity pulldown/tandem mass spectrometry of PA14 lysate; assay type: binding, Pseudomonas aeruginosa PA14; conditions: 500 mM KCl eluate, n-octyl-β-D-glucopyranoside lysate, 4 °C
T1 construct: endogenous in cells; host or cells: P. aeruginosa PA14 overnight culture, n-octyl-β-D-glucopyranoside lysate
T1 sequence (P13794 25-350): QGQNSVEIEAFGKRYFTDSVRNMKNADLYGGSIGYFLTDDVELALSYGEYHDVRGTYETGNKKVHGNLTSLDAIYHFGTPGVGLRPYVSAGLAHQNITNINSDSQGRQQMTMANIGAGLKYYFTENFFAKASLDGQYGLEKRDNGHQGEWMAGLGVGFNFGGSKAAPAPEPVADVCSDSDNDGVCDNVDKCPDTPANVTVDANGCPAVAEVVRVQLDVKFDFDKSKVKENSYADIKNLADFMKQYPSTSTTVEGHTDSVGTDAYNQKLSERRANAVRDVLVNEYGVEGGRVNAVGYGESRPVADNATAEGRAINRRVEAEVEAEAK
Description: (§1) For generation of N-104 and negative control C-95 affinity columns, 2 mg of Cys(N)-N-104 or Cys(N)-C-95 in 2 ml of 50 mM Tris (pH 8.5), 5 mM EDTA coupling buffer were incubated with an equal volume of suspended SulfoLink Coupling Resin with mixing for 3 h at room temperature. Columns were subsequently washed with 3 ml of coupling buffer followed by 2 ml of freshly prepared 50 mM L-cysteine for 2 h at room temperature for quenching and then washed with 10 ml of 1 M NaCl prior to use or storage in 0.05% sodium azide at 4 °C. Coupling efficiency was determined using fluorescence from N-104's penultimate C-terminal tryptophan as 0.65 ± 0.04 μmole per ml of resin.
(§2) Screening for PA14 proteins with N-104 affinity columns was initiated from pelleted 2.5 L overnight cultures that were washed with ice-cold 10 mM Na2HPO4, 1.8 mM KH2PO4, 2.7 mM KCl, 137 mM NaCl (pH 7.2) and lysed by sonication in 25 ml of 50 mM Tris (pH 7.5), 1 mM MgCl2, 200 mM n-octyl-β-D-glucopyranoside with protease inhibitors. Sonication involved five cycles of 15 s with 45 s rest on ice followed by vortexing on ice for 30 min before being rocked end-over-end overnight at 4 °C. After centrifugation, the supernatant was subjected to end-over-end mixing with a 3-ml pre-column of Pierce Agarose followed by equal division by protein concentration for end-over-end incubation with 1 ml N-104 or C-95 columns at 4 °C. […]

P. aeruginosa PA14 = test system: P. aeruginosa PA14
Description: After overnight incubation at 37 °C, plates were analyzed on a ChemiDoc XRS (Bio-Rad).

PA14 fed to C. elegans = assay type: in vivo, Caenorhabditis elegans
Description: L1 stage C. elegans worms on Nematode Growth Medium (NGM) plates with E. coli OP50 as a food source were cultivated at room temperature in a humidified chamber until maturation into sterile young adults ([84]), carefully washed off with M9 minimal salts and then collected by pelleting (1200g, 2 min). […] After 3 days, bacteria and debris were removed leaving 50 μl per well of worms to which 50 μl of 6 μM SYTOX Orange was added in M9 minimal salts. The next day, images were captured using both transmission and epifluorescence (excitation/detection = 535/610 nm) on an AMG EVOS FL AMF-4301 fluorescence microscope (Thermo Fisher Scientific).

[1] = test system: Keio E. coli K-12 single gene knockout strains; assay: Forward genetic N-104 resistance screen of Keio single gene knockouts; assay type: cell-based, Escherichia coli; conditions: 100 μM N-104, slope 5 h after/5 h before; resistance cutoff 0.75
Description: We took advantage of the Alamar Blue viability assay ([85]). Briefly, wells of deep 96-well plates (1896–2000, USA Scientific) each containing 0.8 ml of LB broth supplemented with 50 μg/ml of kanamycin (BP906–5, Fisher Scientific) were singly inoculated with 10 μl aliquots of each of the 3884 Keio E. coli K-12 single gene knockout strains for 16 h at 37 °C on a rotator (160 rpm). A total of 200 μl of a 1:1000 dilution of each (∼10^6 cfu/ml) in 1 mM Na2HPO4, 0.18 mM KH2PO4, 0.27 mM KCl, 13.7 mM NaCl (pH 7.2) containing 10% Alamar Blue (DAL1100, Invitrogen) in wells of black 96-well plates was monitored hourly for 5 h in a SpectraMax M3 plate reader (Molecular Devices) with 3 s agitation before simultaneously reading from the well bottoms at medium PMT voltage with a 590 nm cutoff filter and six flashes per read for the Alamar Blue fluorescence signal (excitation/detection = 560/590 nm). The same hourly monitoring continued for 30 h after the addition of N-104, N-80/C-25 (negative control), or ampicillin (positive control; BP1760–5; Fisher Scientific) at a final concentration of 100 μM each. Data for each of the 3,884 strains were normalized to untreated with 10% Alamar Blue background subtracted as the ratio of the viability slope during the first 5 hours of N-104 treatment versus the slope 5 h previous.

YaiW = assay: Affinity pulldown/tandem mass spectrometry of PA14 lysate; assay type: binding, Pseudomonas aeruginosa PA14; conditions: 500 mM KCl eluate, n-octyl-β-D-glucopyranoside lysate, 4 °C
Description: as §1, §2

| SMILES | binding of outer membrane OprF to immobilized peptide (OprF) | N-104 resistance of PA14 ΔyaiW in CFU assay (P. aeruginosa PA14; 0, 2 or 5 μM N-104, 10^6 cfu/ml, n = 3) | bactericidal efficacy versus osmolarity (P. aeruginosa PA14; 0 to 400 μM N-104 in 30 or 300 mOsm/l phosphate buffer, 8 h, n = 3) | minimum inhibitory concentration (MIC) (P. aeruginosa PA14; PA14, 8 h) [µM] | N-104 resistance of PA14 ΔyaiW in C. elegans survival assay (PA14 fed to C. elegans; 0 or 50 μM N-104, 5 h, 10^7 cfu/ml, n = 3) | viability of C. elegans fed N-104 alone (PA14 fed to C. elegans; 100 μM N-104 without PA14, 3 days) | survival of C. elegans fed peptide-treated PA14 (PA14 fed to C. elegans; PA14 10^7 cfu/ml treated 5 h with 100 μM peptide (legend; method says 50 μM), fed to 50 worms for 3 days, SYTOX Orange, n = 3) | treated:untreated metabolic slope ratio, ΔSbmA E. coli [1] | treated:untreated metabolic slope ratio, ΔYaiW E. coli [1] | affinity of outer membrane YaiW for immobilized peptide (YaiW) |
| --- | --- | --- | --- | --- | --- | --- | --- | --- | --- | --- |
| C[C@H](NC(=O)CNC(=O)[C@@H](NC(=O)[C@H](CO)NC(=O)[C@H](CC(=O)O)NC(=O)[C@H](CO)NC(=O)[C@H](CO)NC(=O)[C@H](C)NC(=O)[C@H](CC(=O)O)NC(=O)[C@@H](N)CCC(=O)O)[C@@H](C)O)C(=O)N[C@@H](CC(=O)O)C(=O)N1CCC[C@H]1C(=O)N[C@@H](C)C(=O)N[C@@H](CCC(N)=O)C(=O)N[C@@H](CCC(=O)O)C(=O)N[C@@H](C)C(=O)NCC(=O)N[C@H](C(=O)N[C@@H](CO)C(=O)N[C@@H](CCCCN)C(=O)N1CCC[C@H]1C(=O)N[C@@H](CC(N)=O)C(=O)N[C@@H](CCC(=O)O)C(=O)N[C@@H](CCC(=O)O)C(N)=O)[C@@H](C)O [C-95, reference compound] (H-EDASSDSTGADPAQEAGTSKPNEE-NH2) | binds OprF | – | – | – | – | – | – | – | – | – |
| CC(=O)N[C@@H](C)C(=O)N[C@@H](CCC(N)=O)C(=O)N[C@@H](CCCCN)C(=O)N[C@@H](CC(C)C)C(=O)N[C@@H](CC(C)C)C(=O)N[C@@H](CCCCN)C(=O)N[C@@H](CCCCN)C(=O)N[C@@H](Cc1ccccc1)C(=O)N[C@@H](CO)C(=O)N[C@@H](CC(C)C)C(=O)N[C@@H](CC(C)C)C(=O)N[C@@H](CCCCN)C(=O)N1CCC[C@H]1C(=O)N[C@@H](Cc1c[nH]c2ccccc12)C(=O)N[C@@H](C)C(=O)O [N-104] (Ac-AQKLLKKFSLLKPWA-OH) | – | partially resistant | diminishes as osmolarity increases | 2 (≈ 3.63 µg/mL) | partially resistant | did not affect viability | fully survived | 0.69 | 0.70 | selective affinity |
